In brackets after ≈: the same amount, converted by molar mass.

The conditions of this series: buffer; pH 7.4; 200.0 µM.
For the compound `Brc1ccc(OCc2cn3ccccc3n2)cc1`, the kinetic solubility – broadly, solubility judged after dilution from a stock solution rather than from solid – was found to be 5.3 µg/mL (≈ 17.5 µM).
With `Cc1cccc(N2CCN(C(=O)NCc3ccc(F)cc3)CC2)c1C`, the kinetic solubility was 3.2 µg/mL (≈ 9.37 µM).
`N#Cc1ccccc1OCC(=O)NC(=O)NCc1ccco1` yielded a solubility (kinetic) of 7.4 µg/mL (≈ 24.7 µM).
`COc1ccc(CNCC(O)COc2ccc(C)cc2[N+](=O)[O-])cc1` (stereo not given) came in with a kinetic solubility above 52 µg/mL.
Consider `Cn1c2c(c(=O)n(C)c1=O)C(c1cccc(F)c1)C(C#N)=C(N)O2` (stereo not given), for which the solubility (kinetic) is 45.5 µg/mL (≈ 139 µM).
Turning to `O=C(COC(=O)COc1ccccc1)Nc1ccc(Br)cc1Br`, the kinetic solubility was determined as 2.2 µg/mL (≈ 4.97 µM).
Compound `Cc1cc(C)cc(NC(=O)COC(=O)COc2ccc(N(C)S(=O)(=O)c3cccs3)cc2)c1` had a kinetic solubility of 9.1 µg/mL (≈ 18.6 µM).
`Cc1ccc(S(=O)(=O)NC2CCSC2=O)cc1C` (stereo not given): the solubility (kinetic) stood at 3.1 µg/mL (≈ 10.9 µM).
`CC(C)(C)CC(=O)NCCCN1CCOCC1` displayed a solubility (kinetic) above 36.4 µg/mL.
As to `CC1CCCN1CC#CC(O)(c1ccccc1)c1ccccc1.Cl` (stereo not given), the solubility (kinetic) stood at 46.9 µg/mL.
As to `CNC(=S)N(CCc1c(C)[nH]c2ccc(F)cc12)Cc1ccco1`, the solubility (kinetic) stood at 3 µg/mL (≈ 8.68 µM).
Regarding `CC(C(=O)Nc1ccc(Cl)cc1)N(C)Cc1cccs1` (stereo not given), the solubility (kinetic) was found to be 13.4 µg/mL (≈ 43.4 µM).
`COc1ccc(N2CCN(S(=O)(=O)c3cnc[nH]3)CC2)cc1` came in with a solubility (kinetic) of 3 µg/mL (≈ 9.31 µM).
Compound `CCCCN(C(=S)SC)C1CCS(=O)(=O)C1` (stereo not given) showed a solubility (kinetic) of 36.9 µg/mL (≈ 131 µM).
For `Cc1ccc(CN2CCCN(Cc3ccc(C)cc3)S2(=O)=O)cc1` the value was below 0.4 µg/mL.
For `Cc1ccc(NC2=CC(=O)CC(C)(C)C2)cc1Cl`, the kinetic solubility stood at 16.2 µg/mL (≈ 61.4 µM).
Consider `O=C(NC1CCCc2ccccc21)C1CCCC1` (stereo not given), for which the kinetic solubility worked out at 27.3 µg/mL (≈ 112 µM).
In turn, `Cn1cnc(S(=O)(=O)N2CCN(c3ccc(F)cc3)CC2)c1` returned a solubility (kinetic) above 48.7 µg/mL.
`FC(F)(F)Oc1ccc(-c2cn3cccnc3n2)cc1` yielded a solubility (kinetic) of 8.5 µg/mL (≈ 30.4 µM).
For `CCOC(=O)c1csc(-c2ccc([N+](=O)[O-])cc2)n1` the value was 5.6 µg/mL (≈ 20.1 µM); for `O=C(NC1CCCCC1)C(=S)N1CCOCC1`, above 38.5 µg/mL.
On to `O=C(CC(=O)NCc1ccc(Cl)cc1)NCc1ccccc1`, for which the kinetic solubility worked out at 7.1 µg/mL (≈ 22.4 µM).
In turn, `CCOC(=O)CNC(=O)c1c(C)nn(C)c1Cl` gave a kinetic solubility above 39 µg/mL.
The compound `Cc1cccc(C)c1NC(=O)c1cnn(-c2ccccc2)c1C` gave a kinetic solubility above 45.8 µg/mL.
With `COc1cc(OC)cc(C(=O)OCC(=O)Nc2ccc3[nH]c(=O)[nH]c3c2)c1` the figure was 4.4 µg/mL (≈ 11.8 µM).
On to `O=C(CN1C(=O)c2ccccc2C1=O)NC1CCCCC1`, for which the kinetic solubility was determined as 33.4 µg/mL (≈ 117 µM).
For `O=c1cc(O)c2ccccc2n1Cc1ccccc1` the value was 31.9 µg/mL (≈ 127 µM); for `COc1cc(-n2c(C)nc3cccnc32)c(Cl)cc1C(=O)O`, above 47.7 µg/mL; for `Cc1ccc(S(=O)(=O)N(C)CC(=O)N2CCC(C(N)=O)CC2)cc1`, above 53 µg/mL.
On to `CCOc1ccc(NC(=O)COC(=O)c2cc(C)oc2C)cc1`, for which the solubility (kinetic) was 4.2 µg/mL (≈ 13.2 µM).
Regarding `COc1ccc(-c2cnc(N)n2C)cc1`, the solubility (kinetic) came out at 26 µg/mL (≈ 128 µM).
In the case of `Cc1ccccc1NC(=O)c1cccnc1`, the solubility (kinetic) was determined as 20.7 µg/mL (≈ 97.5 µM).
On to `O=C(Cn1c(=O)oc2cccnc21)Nc1ccc(C(F)(F)F)cc1`, for which the solubility (kinetic) was 8.9 µg/mL (≈ 26.4 µM).
Regarding `Cc1cc(C)c(C(=O)CN2C(=O)NC3(CCCCC3)C2=O)cc1C`, the kinetic solubility turned out to be 2 µg/mL (≈ 6.09 µM).
With `COC(=O)c1sccc1NC(=O)Nc1ccccc1Cl` the figure was 25.8 µg/mL (≈ 83 µM); with `Cc1cc(C)cc(C(=O)NCC(=O)OCC(=O)NC2CC2)c1`, above 45.7 µg/mL; with `Cc1ccc(SCCC(=O)Nc2cc(C)on2)cc1`, 1.3 µg/mL (≈ 4.7 µM).
In turn, `O=C(NCCCn1ccnc1)c1cc2ccccc2o1` gave a kinetic solubility above 40.4 µg/mL.
For the compound `Cc1cc(NC(=O)OC2CCCCC2)ccc1[N+](=O)[O-]`, the kinetic solubility turned out to be 0.4 µg/mL (≈ 1.44 µM).
In the case of `O=C(Nc1cccc(OC(=O)N2CCCCC2)c1)N1CCOCC1`, the kinetic solubility was above 50 µg/mL.
For `Cc1c(C(=O)Nc2ccccc2)c2ccc(C(F)(F)F)cc2n1O` the value was 1 µg/mL (≈ 2.99 µM); for `O=C(Cn1c(C(=O)OCCO)cc2ccccc21)c1ccccc1`, 6.8 µg/mL (≈ 21 µM).
For `Cc1ccc(N=C2C(=O)Nc3ccccc32)c(C)c1`, the solubility (kinetic) worked out at 28.8 µg/mL (≈ 115 µM).
On to `CC(C)N1CCN(Cc2ccncc2)CC1CCO` (stereo not given), for which the solubility (kinetic) is 24.3 µg/mL (≈ 92.3 µM).
Compound `O=C1N=c2ccccc2=C1c1sc(Nc2cccc(O)c2)nc1O` displayed a kinetic solubility of 0.7 µg/mL (≈ 2.07 µM).
Regarding `CCCCN(CCCC)c1nc(-c2ccncc2)nc2ccccc12`, the solubility (kinetic) was below 0.2 µg/mL.
Take `Nc1ccccc1-n1cccc1`: the kinetic solubility came out at 14.5 µg/mL (≈ 91.7 µM).
The compound `O=C(NC1CCCCC1)c1cc(-c2cccc(Cl)c2)on1` registered a kinetic solubility of 0.7 µg/mL (≈ 2.3 µM).
`CC1(c2ccccc2Br)NC(=O)N(CC(=O)N2CCc3ccccc3C2)C1=O` (stereo not given): the kinetic solubility came to 8.1 µg/mL (≈ 18.3 µM).
As for `Cn1c(-c2ccccc2)c(C=O)c2ccccc21`, the kinetic solubility was 19.5 µg/mL (≈ 82.9 µM).
Turning to `CSCCC(NC(=O)COc1ccccc1)C(=O)N1CCCC(C)C1` (stereo not given), the solubility (kinetic) is above 54.7 µg/mL.
Compound `O=C(c1ccc(Oc2ccc([N+](=O)[O-])cc2)cc1)N1CCCCCC1` came in with a solubility (kinetic) of 34.4 µg/mL (≈ 101 µM).
The compound `OCC1OC(n2cnc3c(NC4CCCC4)ncnc32)C(O)C1O` (stereo not given) registered a kinetic solubility above 50.3 µg/mL.
With `c1ccc2sc(NCC3CCCO3)nc2c1` (stereo not given) the figure was above 35.1 µg/mL; with `c1ccc(N2CCN(CC3CCCCC3)CC2)cc1`, 17 µg/mL (≈ 65.8 µM).
Regarding `Cc1ccc(-c2c(C(=O)O)c3ccccc3[nH]c2=O)cc1`, the kinetic solubility was above 41.9 µg/mL.
`O=C1C=C(NC2CCCC2)CC(c2ccccc2)C1` (stereo not given) displayed a kinetic solubility above 38.3 µg/mL.
For the compound `CN(C)CCCC1Sc2ccccc2Sc2ccccc21.O=C(O)C(=O)O` (stereo not given), the kinetic solubility is above 60.8 µg/mL.
With `CCOc1ccc(OCc2ccc(C(=O)NC(C)(C)C)o2)cc1` the figure was 8.8 µg/mL (≈ 27.7 µM).
With `CCn1c(O)c(C#N)c(C)cc1=O` the figure was above 26.7 µg/mL; with `COc1ccc(S(=O)(=O)NC2CCCC2)cc1NC(C)=O`, above 46.9 µg/mL; with `O=C(OCC(=O)c1ccc[nH]1)C1=COCCO1`, above 35.6 µg/mL.
The compound `Cc1ccc(NC(=O)CSc2ncccn2)cc1S(=O)(=O)N1CCOCC1` gave a solubility (kinetic) above 61.3 µg/mL.
`CC(C)c1ccc(NC2CCCN(C(=O)c3cscn3)C2)cc1` (stereo not given) came in with a kinetic solubility above 49.4 µg/mL.
For `COc1ccccc1N1CCN(c2ccc(S(=O)(=O)N3CCN(C)CC3)cn2)CC1` the value was 26.9 µg/mL (≈ 62.3 µM); for `O=C(Nc1cc(S(=O)(=O)N2CCOCC2)ccc1O)c1ccc(S(=O)(=O)N2CCCCC2)cc1`, 4.8 µg/mL (≈ 9.42 µM).
Compound `CCN1CCN(CC(c2ccccc2)c2ccccc2)CC1` yielded a kinetic solubility of 29.1 µg/mL (≈ 98.8 µM).
With `CNc1oc(/C=C/c2cccc(OC)c2)nc1C#N`, the kinetic solubility was 3.7 µg/mL (≈ 14.5 µM).
The compound `COc1ccccc1N1CCN(C(=O)c2c(C)noc2C)CC1` yielded a solubility (kinetic) above 47.3 µg/mL.
Regarding `CCN(CC)C(=O)c1csc(Nc2cccc3ccccc23)n1`, the solubility (kinetic) turned out to be 7.2 µg/mL (≈ 22.1 µM).
`CC(=O)O.CC1=CC(C)C(/C=N/N=C(N)N)C(C)C1` (stereo not given) gave a kinetic solubility above 40.3 µg/mL.
Consider `O=C(CCc1c[nH]c2ccccc12)NCc1cccc(Cl)c1`, for which the kinetic solubility was found to be 40.3 µg/mL (≈ 129 µM).
In turn, `Fc1ccccc1CNc1ncnc2sccc12` registered a solubility (kinetic) of 9.9 µg/mL (≈ 38.2 µM).
As to `O=S(=O)(NCCCN1CCOCC1)c1ccc2ccccc2c1`, the solubility (kinetic) is above 50.2 µg/mL.
Turning to `Cc1ccc(NC(=O)Cn2c([N+](=O)[O-])cnc2C)cc1`, the kinetic solubility is above 41.1 µg/mL.
For `O=C(c1ccco1)c1cn(CC(=O)N2CCCC2)c2ccccc12`, the solubility (kinetic) was above 48.4 µg/mL.
With `COc1cc(C(=O)Nc2nnc(C)s2)c([N+](=O)[O-])cc1OC` the figure was above 48.6 µg/mL; with `C[C@](N)(Cc1ccc(O)c(O)c1)C(=O)O`, above 31.7 µg/mL.
In turn, `Cc1ccc(S(=O)(=O)CC(O)COc2ccc(C#N)cc2)cc1` (stereo not given) came in with a solubility (kinetic) above 49.7 µg/mL.
For `COc1ccc2nc(NC(=O)c3c(C)noc3C)sc2c1` the value was above 45.5 µg/mL; for `O=c1[nH]c(S)c(/C=C2\C=Nc3ccccc32)s1`, 9.6 µg/mL (≈ 36.9 µM); for `O=C(NCc1cccnc1)Nc1cccc(NC(=O)NCc2cccnc2)c1F`, 7.6 µg/mL (≈ 19.3 µM).
`Clc1ccc(OCC#CCN2CCOCC2)cc1.O=C(O)C(=O)O` displayed a solubility (kinetic) of 50.3 µg/mL.
`NS(=O)(=O)c1cccc(NC(=O)CCC(=O)c2cccs2)c1` had a kinetic solubility above 50.8 µg/mL.
As to `c1ccc(-c2csc(-c3ccncc3)n2)cc1`, the kinetic solubility amounted to 24.8 µg/mL (≈ 104 µM).
With `COc1cccc(NC(=O)CSc2cccc[n+]2[O-])c1`, the solubility (kinetic) is above 43.6 µg/mL.
For the compound `CCN(C(=O)CSc1ccccn1)C1CCCCC1`, the kinetic solubility was above 41.8 µg/mL.
Consider `O=C1CN(C(=O)COC(=O)CCc2ccccc2O)c2ccccc2N1`, for which the solubility (kinetic) was above 53.2 µg/mL.
`CCC(C)Nc1nc(N)c([N+](=O)[O-])c(Nc2cc(OC)ccc2OC)n1` (stereo not given) gave a kinetic solubility of 1.2 µg/mL (≈ 3.31 µM).
As for `COC(=O)c1ccc2[nH]c3c(c2c1)CC(C)CC3` (stereo not given), the kinetic solubility was found to be 0.9 µg/mL (≈ 3.7 µM).
As for `CCOCCCNC(=O)N[C@H](C(=O)OC)C(C)CC` (stereo not given in full), the kinetic solubility is above 41.2 µg/mL.
Regarding `O=c1oc2ccccc2n1Cc1ccccc1F`, the solubility (kinetic) worked out at 4.2 µg/mL (≈ 17.3 µM).
`CC1CCCC(NC(=O)COC(=O)CCC(=O)c2cccs2)C1C` (stereo not given) gave a kinetic solubility above 52.7 µg/mL.
For `Cc1ccc(C(=O)NCCc2ccccc2)cc1N1CCCC1=O`, the solubility (kinetic) is above 48.4 µg/mL.
As to `CC(C)(C)C(=O)NC1CC2CCCC(C1)N2C(=O)Nc1ccccc1F` (stereo not given), the kinetic solubility was determined as 6.1 µg/mL (≈ 16.9 µM).
For the compound `COc1ccc(N2CCN(C(=O)NC(=O)c3ccc(Cl)cc3)CC2)cc1`, the solubility (kinetic) was determined as 3.1 µg/mL (≈ 8.29 µM).
Turning to `O=[N+]([O-])c1cccc(C2(O)COc3ccccc3O2)c1` (stereo not given), the kinetic solubility was above 41 µg/mL.
For `CC1=CC(C)(C)NC(=S)N1C(C)c1ccccc1` (stereo not given) the value was 7.2 µg/mL (≈ 27.6 µM).
With `CC(C)(Oc1ccc(Cl)cc1)C(=O)NC1CC1` the figure was above 38.1 µg/mL.
For `Cc1nc2ccc(NC(=O)c3cccs3)cc2s1` the value was 8.4 µg/mL (≈ 30.6 µM); for `COc1ccc(CNC(=O)c2coc(=O)c3ccccc23)cc1`, 30.8 µg/mL (≈ 99.6 µM); for `COc1ccc(CCC(=O)NCC2CCCCC2)cc1OC`, above 45.8 µg/mL.
`Cc1nc([N+](=O)[O-])c(N2CCOCC2)n1Cc1ccccc1` returned a kinetic solubility of 44.7 µg/mL (≈ 148 µM).
Compound `Cc1ccc(/C=C/C(=O)N2CCCC(C(N)=O)C2)o1` (stereo not given) yielded a solubility (kinetic) above 39.3 µg/mL.
Take `O=C(CCCCCCCCN1C(=O)c2ccccc2C1=O)N1CCOCC1`: the kinetic solubility came to 43.4 µg/mL (≈ 117 µM).
